Usually IC50 stands for the concentration needed to halve the response being measured. A low value points to greater potency in that assay.

The text below walks through data of publication PMC3448953 (2012).

For the experiment, the target named is BioA (Mycobacterium tuberculosis, UniProt P9WQ81). Kind of experiment: continuous coupled fluorescence enzyme assay. The format is biochemical.

Counter-ions that a name gives are not always drawn.

BioA, sequence (P9WQ81 whole entry): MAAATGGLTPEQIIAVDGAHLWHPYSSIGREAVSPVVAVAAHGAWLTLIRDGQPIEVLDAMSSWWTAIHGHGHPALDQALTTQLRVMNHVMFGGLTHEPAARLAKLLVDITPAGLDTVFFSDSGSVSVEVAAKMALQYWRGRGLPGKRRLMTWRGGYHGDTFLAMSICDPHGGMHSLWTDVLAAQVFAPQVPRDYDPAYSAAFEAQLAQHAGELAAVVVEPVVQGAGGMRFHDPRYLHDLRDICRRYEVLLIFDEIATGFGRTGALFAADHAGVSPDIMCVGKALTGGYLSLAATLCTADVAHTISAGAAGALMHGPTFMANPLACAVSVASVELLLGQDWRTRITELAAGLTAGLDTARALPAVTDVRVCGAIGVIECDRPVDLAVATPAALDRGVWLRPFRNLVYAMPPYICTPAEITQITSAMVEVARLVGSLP

In turn, `N[C@H]1C=C[C@@H](CCCO)C1` (racemic) [M-2, (±)-cis-3-(-4-Aminocyclopent-2-enyl)propan-1-ol hydrochloride salt] returned an IC50 of 57 ± 1.9 µM.
